How the values were obtained:
desquamine = assay: desquamine-like activity of an epidermic extract (hydrolysis of synthetic specific substrate of tPA); format: biochemical
Protocol: Effect of a diethylphosphatoethyltrisilanol's precursor, the diethylphosphatoethyltriethoxysilane, on the "desquame-like" activity of an epidermic extract.
Desquamine is obtained from an epidermic extract according to the Brysk and al (1994) method. The desquamine activity is evaluated by its ability to hydrolyze the synthetic specific substrate of the tPA for which it has a very strong affinity.

[1] = tested on: collagenase type activity of human chondrocytes; assay: collagenase type enzymatic activity of human chondrocytes culture (Cawston and Barrett method); format: cell-based; conditions: no IL-1
Protocol: Effect of a diethylphosphatoethyltrisilanol's precursor, the diethylphosphatoethyltriethoxysilane, on the collagenase type activity of human chondrocytes culture.
(§1) Chondrocytes cultures are carried out from human cartilages sampled on cadavers 12 hours after the death. In aqueous buffered medium (pH 7.0-7.4), the diethylphosphatoethyltriethoxysilane releases the corresponding diethylphosphatoethyltrisilanol, which is the active silanol. The collagenase type enzymatic activity of these chondrocytes cultures is quantified following the Cawston and Barrett method.

[2] = tested on: collagenase type activity of human chondrocytes; assay: collagenase type enzymatic activity of human chondrocytes cultures after IL-1 induction (Cawston and Barrett method); format: cell-based; conditions: after IL-1 treatment
Protocol: Effect of a diethylphosphatoethyltrisilanol's precursor, the diethylphosphatoethyltriethoxysilane, on the collagenase type activity of human chondrocytes cultures after IL-1 induction.
as §1, with “method after previous treatment of the cultures by IL-1.” for “method.”

[3] = tested on: stromelysine type activity of human chondrocytes; assay: stromelysine type enzymatic activity of human chondrocytes culture (digestion of casein coupled with resorufine); format: cell-based; conditions: no IL-1
Protocol: Effect of a diethylphosphatoethyltrisilanol's precursor, the diethylphosphatoethyltriethoxysilane, on the stromelysine type activity of human chondrocytes culture.
as §1, with “stromelysine” for “collagenase”, “by” for “following”, “method of digestion of casein coupled with resorufine.” for “Cawston and Barrett method.”

[4] = tested on: stromelysine type activity of human chondrocytes; assay: stromelysine type enzymatic activity of human chondrocytes culture after IL-1 induction (digestion of casein coupled with resorufine); format: cell-based; conditions: after IL-1 treatment
Protocol: Effect of a diethylphosphatoethyltrisilanol's precursor, the diethylphosphatoethyltriethoxysilane, on the stromelysine type activity of human chondrocytes culture after IL-1 induction.
as §1, with “Human chondrocytes” for “Chondrocytes”, “stromelysine” for “collagenase”, “quantified, after previous treatment of cultures with IL-1, by” for “quantified following”, “method of digestion of casein coupled with resorufine.” for “Cawston and Barrett method.”

[5] = tested on: osteoblasts alkaline phosphatase; assay: synthetic activity of osteoblasts (alkaline phosphatase activity); format: cell-based, human
Protocol: Effect of a diethylphosphatoethyltrisilanol's precursor, the diethylphosphatoethyltriethoxysilane, on the synthetic activity of osteoblasts.
(§2) Osteoblasts cultures are carried out from human bones sampled on cadavers 12 hours after the death. In aqueous buffered medium (pH 7.0-7.4), the diethylphosphatoethyltriethoxysilane releases the corresponding diethylphosphatoethyltrisilanol, which is the active silanol. The synthetic activity of these osteoblasts is quantified by the measure of the alkaline phosphatase activity.

IL-6 of osteoblasts = assay: IL-6 level of osteoblasts (ELISA); format: cell-based, human
Protocol: Effect of a diethylphosphatoethyltrisilanol's precursor, the diethylphosphatoethyltriethoxysilane, on the IL-6 activity of osteoblasts.
as §2, with “IL-6” for “The synthetic activity of these osteoblasts”, “ELISA technique.” for “measure of the alkaline phosphatase activity.”

[6] = tested on: chymotrypsine-like activity of epidermic extract; assay: chymotrypsine-like activity of an epidermic extract (BTEE degradation); format: biochemical
Protocol: Effect of a diethylphosphatoethyltrisilanol's precursor, the diethylphosphatoethyltriethoxysilane, on the chymotrypsine type activity of an epidermic extract.
After sampling from a cutaneous tissue, the epidermis is cut then put in an appropriate buffered solution. The solution is homogenized with Ultra Turax (40 C.) until a satisfying epidermic extract is obtained. The chymotrypsine-like activity of this extract is assessed by the measure of the N alpha-Benzoyl-L-Tyrosine Ethyl Ester (BTEE) degradation (specific synthetic substrate).

SMILES	effect on "desquamine-like" activity of the epidermic extract, in words (desquamine)	inhibition of the "desquamine-like" activity of the epidermic extract (desquamine; 300 μg/ml) [%]	inhibition of "collagenase-like" activity of the chondrocytes ([1]; 500 μg/ml) [%]	effect on "collagenase-like" activity of the chondrocytes, in words [1]	inhibition of "collagenase-like" activity of the chondrocytes ([2]; 500 μg/ml) [%]	effect on "collagenase-like" activity of the chondrocytes, in words [2]	inhibition of "collagenase-like" activity of the chondrocytes (stromelysine type activity test) ([3]; 500 μg/ml) [%]	effect on "collagenase-like" activity of the chondrocytes (stromelysine type activity test), in words [3]	inhibition of "collagenase-like" activity of the chondrocytes (stromelysine type activity test) ([4]; 500 μg/ml) [%]	effect on "collagenase-like" activity of the chondrocytes (stromelysine type activity test), in words [4]	effect on osteoblasts alkaline phosphatases activity, in words [5]	increase of the osteoblasts alkaline phosphatases activity (printed "inhibition") ([5]; 100 μg/ml)	effect on osteoblasts IL-6 level, in words (IL-6 of osteoblasts)	decrease of the osteoblasts IL-6 level (inhibition) (IL-6 of osteoblasts; 100 μg/ml) [%]	effect on "chymotrypsine-like" activity of the epidermic extract, in words [6]	inhibition of "chymotrypsine-like" activity of the epidermic extract ([6]; 400 μg/ml (printed 400 μ0 g/ml)) [%]
C[Si](O)(O)O [CH3 Si(OH)3]	dose-dependent inhibition	25														
CCOP(=O)(CC[Si](O)(O)O)OCC [diethylphosphatoethyltrisilanol]			30	dose-dependent decrease	21	dose-dependent decrease	37	dose-dependent decrease	18	dose-dependent decrease	dose-dependent increase	+24%	dose-dependent decrease	-49	dose-dependant decrease	27

Reference: patent publication US6001389A, “Compositions containing biologically active silicon” (priority 1997, dated 1999)
